Experimental data published in patent publication US9376420B2 (YUHAN CORPORATION, priority 2012, dated 2016).
pEC50: −log10 of the molar value.

Target: T1, human LXRβ (Homo sapiens, UniProt P55055)
T1 construct: expressed in transfected cells; host or cells: HEK293 cells (ATCC CRL-1573), transient transfection with pFA-hLXRβ/GAL4 and pUAS
T1 sequence (P55055 222-460 limits assumed): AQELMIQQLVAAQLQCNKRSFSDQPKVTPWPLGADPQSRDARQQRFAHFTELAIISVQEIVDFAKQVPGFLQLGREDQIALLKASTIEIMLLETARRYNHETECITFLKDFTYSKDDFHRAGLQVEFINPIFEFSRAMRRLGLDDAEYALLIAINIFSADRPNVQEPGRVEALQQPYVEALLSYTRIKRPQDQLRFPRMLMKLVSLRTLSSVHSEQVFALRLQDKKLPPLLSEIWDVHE
Assay: Assay for Transcriptional Activity of LXRβ (GAL4-hLXRβ LBD luciferase reporter, transient transfection)
Assay type: cell-based
Details: HEK293 cells transfected with pFA-hLXRβ/GAL4 and pUAS, 24 hours; for Emax: fold value in comparison with the control (DMSO-treated group); for pEC50: increase of transcriptional activity of LXRβ, average of three independent tests
Method in brief: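 HEK293 cells transiently co-transfected with GAL4-hLXRβ LBD and 5×GAL4-UAS luciferase reporter, treated 24 h at 37 °C with compounds over 9 points (0.01–50 μM, half-log). Luminescence read after lysis; EC50 from four-parameter fit, mean of three independent tests, with a known LXR agonist as positive control.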

Row | SMILES | Emax | pEC50
1 | CNCCCS(=O)(=O)c1cccc(-c2ccc(C3CC(C(O)(C(F)(F)F)C(F)(F)F)=NN3c3ccccc3Cl)cc2)c1 (centres unmarked) [Example 334, 1-(2-chloro-phenyl)-5-{3′-[3-(methyl-amino)-propane-1-sulfonyl]-biphenyl-4-yl}-3-[di-(trifluoromethyl)-hydroxy-methyl]-4,5-dihydro-1H-pyrazole] | 102 fold | 6.53
2 | CS(=O)(=O)c1ccc(-c2ccc(C3CC(C(O)(C(F)(F)F)C(F)(F)F)=NN3c3ccccc3Cl)cc2)cn1 (centres unmarked) [Example 335, 1-(2-chloro-phenyl)-5-[4-(6-methanesulfonyl-pyridin-3-yl)-phenyl]-3-[di-(trifluoromethyl)-hydroxy-methyl]-4,5-dihydro-1H-pyrazole] | 94 fold | 6.87
3 | CCOc1cccc(-c2ccc(C3CC(C(O)(C(F)(F)F)C(F)(F)F)=NN3c3ccccc3F)cc2)c1 (centres unmarked) [Example 336, 5-(3′-ethoxy-biphenyl-4-yl)-1-(2-fluoro-phenyl)-3-[di-(trifluoromethyl)-hydroxy-methyl]-4,5-dihydro-1H-pyrazole] | 72 fold | 5.83
4 | CCOc1cccc(-c2ccc(C3CC(C(O)(C(F)(F)F)C(F)(F)F)=NN3c3ccc(F)cc3F)cc2)c1 (centres unmarked) [Example 337, 5-(3′-ethoxy-biphenyl-4-yl)-1-(2,4-difluoro-phenyl)-3-[di-(trifluoromethyl)-hydroxy-methyl]-4,5-dihydro-1H-pyrazole] | 80 fold | 5.97
5 | CSc1cccc(-c2ccc(C3CC(C(O)(C(F)(F)F)C(F)(F)F)=NN3c3ccccc3Cl)c(F)c2)c1 (centres unmarked) [Example 338, 1-(2-chloro-phenyl)-5-(3-fluoro-3′-methylsulfanyl-biphenyl-4-yl)-3-[di-(trifluoromethyl)-hydroxy-methyl]-4,5-dihydro-1H-pyrazole] | 87 fold | 6.07
6 | CCOc1cccc(-c2ccc(C3CC(C(O)(C(F)(F)F)C(F)(F)F)=NN3c3ccccc3Cl)c(F)c2)c1 (centres unmarked) [Example 339, 1-(2-chloro-phenyl)-5-(3′-ethoxy-3-fluoro-biphenyl-4-yl)-3-[di-(trifluoromethyl)-hydroxy-methyl]-4,5-dihydro-1H-pyrazole] | 71 fold | 5.95
7 | Cc1ccccc1-c1ccc(C2CC(C(O)(C(F)(F)F)C(F)(F)F)=NN2c2ccccc2Cl)c(F)c1 (centres unmarked) [Example 340, 1-(2-chloro-phenyl)-5-(3-fluoro-2′-methyl-biphenyl-4-yl)-3-[di-(trifluoromethyl)-hydroxy-methyl]-4,5-dihydro-1H-pyrazole] | 101 fold | 6.11
8 | CC(=O)c1ccc(-c2ccc(C3CC(C(O)(C(F)(F)F)C(F)(F)F)=NN3c3ccccc3Cl)c(F)c2)cc1 (centres unmarked) [Example 341, 1-(2-chloro-phenyl)-5-(4′-acetyl-3-fluoro-biphenyl-4-yl)-3-[di-(trifluoromethyl)-hydroxy-methyl]-4,5-dihydro-1H-pyrazole] | 112 fold | 6.45
9 | CC(C)(C)OC(=O)N1CC=C(c2ccc(C3CC(C(O)(C(F)(F)F)C(F)(F)F)=NN3c3ccccc3Cl)c(F)c2)CC1 (centres unmarked) [Example 342, 1-(2-chloro-phenyl)-5-[2-fluoro-4-(1-BOC-1,2,3,6-tetrahydropyridin-4-yl)-phenyl]-3-[di-(trifluoromethyl)-hydroxy-methyl]-4,5-dihydro-1H-pyrazole] | 21 fold | 5.39
10 | COc1ccc(-c2ccc(C3CC(C(O)(C(F)(F)F)C(F)(F)F)=NN3c3ccccc3Cl)c(F)c2)cn1 (centres unmarked) [Example 343, 1-(2-chloro-phenyl)-5-[2-fluoro-4-(6-methoxy-pyridin-3-yl)-phenyl]-3-[di-(trifluoromethyl)-hydroxy-methyl]-4,5-dihydro-1H-pyrazole] | 81 fold | 6.21
11 | OC(C1=NN(c2ccccc2Cl)C(c2ccc(-c3ccc(F)cc3)cc2F)C1)(C(F)(F)F)C(F)(F)F (centres unmarked) [Example 344, 1-(2-chloro-phenyl)-5-(3,4′-difluoro-biphenyl-4-yl)-3-[di-(trifluoromethyl)-hydroxy-methyl]-4,5-dihydro-1H-pyrazole] | 53 fold | 6.00
12 | C[S+]([O-])c1cccc(-c2ccc(C3CC(C(O)(C(F)(F)F)C(F)(F)F)=NN3c3ccccc3Cl)c(F)c2)c1 (centres unmarked) [Example 345, 1-(2-chloro-phenyl)-5-(3-fluoro-3′-methanesulfinyl-biphenyl-4-yl)-3-[di-(trifluoromethyl)-hydroxy-methyl]-4,5-dihydro-1H-pyrazole] | 42 fold | 7.15
13 | CS(=O)(=O)c1cccc(-c2ccc(C3CC(C(O)(C(F)(F)F)C(F)(F)F)=NN3c3ccccc3Cl)c(F)c2)c1 (centres unmarked) [Example 347, 1-(2-chloro-phenyl)-5-(3-fluoro-3′-methanesulfonyl-biphenyl-4-yl)-3-[di-(trifluoromethyl)-hydroxy-methyl]-4,5-dihydro-1H-pyrazole] | 62 fold | 7.38
14 | CC(=O)c1ccccc1-c1ccc(C2CC(C(O)(C(F)(F)F)C(F)(F)F)=NN2c2ccccc2Cl)cn1 (centres unmarked) [Example 348, 5-[6-(2-acetyl-phenyl)-pyridin-3-yl]-1-(2-chloro-phenyl)-3-[di-(trifluoromethyl)-hydroxy-methyl]-4,5-dihydro-1H-pyrazole] | 45 fold | 6.00
15 | COc1cccc(-c2ccc(C3CC(C(O)(C(F)(F)F)C(F)(F)F)=NN3c3ccccc3Cl)cn2)c1 (centres unmarked) [Example 349, 1-(2-chloro-phenyl)-5-[6-(3-methoxy-phenyl)-pyridin-3-yl]-3-[di-(trifluoromethyl)-hydroxy-methyl]-4,5-dihydro-1H-pyrazole] | 60 fold | 6.11
16 | OC(C1=NN(c2ccccc2Cl)C(c2ccc(-c3ccc(F)cc3)nc2)C1)(C(F)(F)F)C(F)(F)F (centres unmarked) [Example 353, 1-(2-chloro-phenyl)-5-[6-(4-fluoro-phenyl)-pyridin-3-yl]-3-[di-(trifluoromethyl)-hydroxy-methyl]-4,5-dihydro-1H-pyrazole] | 94 fold | 6.33
17 | CC(C)(C)OC(=O)N1CCN(c2ccc(C3CC(C(O)(C(F)(F)F)C(F)(F)F)=NN3c3ccccc3Cl)cn2)CC1 (centres unmarked) [Example 355, 1-(2-chloro-phenyl)-5-[6-(4-BOC-piperazin-1-yl)-pyridin-3-yl]-3-[di-(trifluoromethyl)-hydroxy-methyl]-4,5-dihydro-1H-pyrazole] | 43 fold | 5.38
18 | CS(=O)(=O)N1CC=C(c2ccc(C3CC(C(O)(C(F)(F)F)C(F)(F)F)=NN3c3ccccc3Cl)cn2)CC1 (centres unmarked) [Example 358, 1-(2-chloro-phenyl)-5-[6-(1-methanesulfonyl-1,2,3,6-tetrahydropyridin-4-yl)-pyridin-3-yl]-3-[di-(trifluoromethyl)-hydroxy-methyl]-4,5-dihydro-1H-pyrazole] | 90 fold | 6.14
19 | O=S(=O)(C1CC1)N1CC=C(c2ccc(C3CC(C(O)(C(F)(F)F)C(F)(F)F)=NN3c3ccccc3Cl)cn2)CC1 (centres unmarked) [Example 359, 1-(2-chloro-phenyl)-5-[6-(1-cyclopropanesulfonyl-1,2,3,6-tetrahydropyridin-4-yl)-pyridin-3-yl]-3-[di-(trifluoromethyl)-hydroxy-methyl]-4,5-dihydro-1H-pyrazole] | 92 fold | 6.20
